Assay results published in the supplement of paper PMC8617591.

How the values were obtained:
[1] = tested on: Mycobacterium tuberculosis Erdman (autoluminescent); test: total FIC50 (Loewe) at 50% inhibition, three-drug combination (log2); higher = more antagonistic
Experimental: (§1)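 DiaMOND equipotent three-drug combination dose responses (10 doses, 1.5- or 2-fold spacing, centred on IC90) against autoluminescent M. tuberculosis Erdman in 8 in vitro models. Read-out is OD600, or luminescence for the intracellular and dormancy models, normalised to untreated wells. Hill-fit Einf, AUC25 and GRinf are potency metrics; FIC50 and FIC90 are total Loewe fractional inhibitory concentrations as log2 (negative = synergy).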

[2] = tested on: Mycobacterium tuberculosis Erdman (autoluminescent); test: total FIC90 (Loewe) at 90% inhibition, three-drug combination (log2); higher = more antagonistic
Experimental: as §1

[3] = tested on: Mycobacterium tuberculosis Erdman (autoluminescent); test: Einf, fitted maximum growth inhibition of three-drug combination (fraction); higher = stronger maximal inhibition
Experimental: as §1

[4] = tested on: Mycobacterium tuberculosis Erdman (autoluminescent); test: AUC25, normalised area under dose response up to IC25 (three-drug combination) (fraction (0-1)); higher = more potent at low dose
Experimental: as §1

[5] = tested on: Mycobacterium tuberculosis Erdman (autoluminescent); test: GRinf, maximum normalised growth rate inhibition (three-drug combination) (unitless (-1 to 1)); higher = less effect (negative = killing)
Experimental: as §1

CC[C@@H](CO)NCCN[C@@H](CC)CO [ethambutol] + CO[C@H]1/C=C/O[C@@]2(C)Oc3c(C)c(O)c4c(O)c(c(/C=N/N5CCN(C6CCCC6)CC5)c(O)c4c3C2=O)NC(=O)/C(C)=C\C=C\[C@H](C)[C@H](O)[C@@H](C)[C@@H](O)[C@@H](C)[C@H](OC(C)=O)[C@@H]1C [rifapentine] + CO[C@H]1/C=C/O[C@@]2(C)Oc3c(C)c(O)c4c(O)c(c(/C=N/N5CCN(C)CC5)c(O)c4c3C2=O)NC(=O)/C(C)=C\C=C\[C@H](C)[C@H](O)[C@@H](C)[C@@H](O)[C@@H](C)[C@H](OC(C)=O)[C@@H]1C [rifampicin]
Conditions	AUC25, [4]	Einf, [3]	GRinf, [5]	total FIC50, [1]	total FIC90, [2]
in vitro model: acidic pH 5.7, time point: constant (~7 days, model-specific)	0.0788	0.863	-0.0676	-0.0556	–
in vitro model: acidic pH 5.7, time point: terminal (~4-5 doublings, model-specific)	0.0407	0.966	-0.0521	0.0683	-0.673
in vitro model: intracellular J774, time point: constant = terminal	–	0.964	-0.359	–	-2.2

Conditions	AUC25, [4]	Einf, [3]	GRinf, [5]	total FIC50, [1]	total FIC90, [2]
in vitro model: butyrate, time point: constant (~7 days, model-specific)	0.0871	0.924	-0.00846	0.0694	–
in vitro model: butyrate, time point: terminal (~4-5 doublings, model-specific)	0.0718	0.965	-0.0114	0.0725	-0.469
in vitro model: cholesterol 0.05 mM, time point: constant (~7 days, model-specific)	0.12	0.674	-0.208	-0.109	–
in vitro model: cholesterol 0.05 mM, time point: terminal (~4-5 doublings, model-specific)	0.0846	0.884	-0.0993	-0.106	–
in vitro model: cholesterol-high 0.2 mM, time point: constant (~7 days, model-specific)	0.0408	0.947	-0.442	0.69	–
in vitro model: cholesterol-high 0.2 mM, time point: terminal (~4-5 doublings, model-specific)	0.0471	1	-0.703	0.74	0.613
in vitro model: dormancy (butyrate + nitrate, low O2), time point: constant (~7 days, model-specific)	0.066	0.854	0.363	-0.0614	–
in vitro model: dormancy (butyrate + nitrate, low O2), time point: terminal (~4-5 doublings, model-specific)	0.0493	0.981	-0.104	0.286	-0.687
in vitro model: standard 7H9 glycerol, time point: constant = terminal	0.0475	0.909	0.0838	0.231	–
in vitro model: valerate, time point: constant (~7 days, model-specific)	0.0622	0.889	0.0114	-0.0551	–
in vitro model: valerate, time point: terminal (~4-5 doublings, model-specific)	0.0314	0.936	0.0132	0.133	-0.823

CC[C@@H](CO)NCCN[C@@H](CC)CO [ethambutol] + COc1c(N2C[C@@H]3CCCN[C@@H]3C2)c(F)cc2c(=O)c(C(=O)O)cn(C3CC3)c12 [moxifloxacin] + CO[C@H]1/C=C/O[C@@]2(C)Oc3c(C)c(O)c4c(O)c(c(/C=N/N5CCN(C6CCCC6)CC5)c(O)c4c3C2=O)NC(=O)/C(C)=C\C=C\[C@H](C)[C@H](O)[C@@H](C)[C@@H](O)[C@@H](C)[C@H](OC(C)=O)[C@@H]1C [rifapentine]
Conditions	AUC25, [4]	Einf, [3]	GRinf, [5]	total FIC50, [1]	total FIC90, [2]
in vitro model: acidic pH 5.7, time point: constant (~7 days, model-specific)	0.071	0.869	0.0546	0.231	–
in vitro model: acidic pH 5.7, time point: terminal (~4-5 doublings, model-specific)	0.0263	0.959	-0.0323	0.724	0.104
in vitro model: intracellular J774, time point: constant = terminal	–	0.975	-0.351	–	-1.53

Conditions	AUC25, [4]	Einf, [3]	GRinf, [5]	total FIC50, [1]	total FIC90, [2]
in vitro model: butyrate, time point: constant (~7 days, model-specific)	0.0619	0.916	0.00267	0.508	–
in vitro model: butyrate, time point: terminal (~4-5 doublings, model-specific)	0.0506	0.961	-0.00309	0.467	-0.223
in vitro model: cholesterol 0.05 mM, time point: constant (~7 days, model-specific)	0.104	0.635	-0.31	0.788	–
in vitro model: cholesterol 0.05 mM, time point: terminal (~4-5 doublings, model-specific)	0.0642	0.834	0.155	1.57	–
in vitro model: cholesterol-high 0.2 mM, time point: constant (~7 days, model-specific)	0.0293	0.932	-0.315	1.07	–
in vitro model: cholesterol-high 0.2 mM, time point: terminal (~4-5 doublings, model-specific)	0.0405	1	-0.787	1.22	0.977
in vitro model: dormancy (butyrate + nitrate, low O2), time point: constant (~7 days, model-specific)	0.0738	0.842	0.339	0.142	–
in vitro model: dormancy (butyrate + nitrate, low O2), time point: terminal (~4-5 doublings, model-specific)	0.116	0.993	-0.177	0.309	0.994
in vitro model: standard 7H9 glycerol, time point: constant = terminal	0.044	0.906	0.0179	0.47	0.148
in vitro model: valerate, time point: constant (~7 days, model-specific)	0.0523	0.893	-0.0774	0.833	–
in vitro model: valerate, time point: terminal (~4-5 doublings, model-specific)	0.0364	0.942	-0.0136	0.843	-0.33

CC[C@@H](CO)NCCN[C@@H](CC)CO [ethambutol] + COc1c(N2C[C@@H]3CCCN[C@@H]3C2)c(F)cc2c(=O)c(C(=O)O)cn(C3CC3)c12 [moxifloxacin] + CO[C@H]1/C=C/O[C@@]2(C)Oc3c(C)c(O)c4c(O)c(c(/C=N/N5CCN(C)CC5)c(O)c4c3C2=O)NC(=O)/C(C)=C\C=C\[C@H](C)[C@H](O)[C@@H](C)[C@@H](O)[C@@H](C)[C@H](OC(C)=O)[C@@H]1C [rifampicin]
Conditions	AUC25, [4]	Einf, [3]	GRinf, [5]	total FIC50, [1]	total FIC90, [2]
in vitro model: acidic pH 5.7, time point: constant (~7 days, model-specific)	0.0728	0.842	0.00792	0.27	–
in vitro model: acidic pH 5.7, time point: terminal (~4-5 doublings, model-specific)	0.033	0.969	-0.0608	0.591	-0.139
in vitro model: intracellular J774, time point: constant = terminal	–	0.965	-0.353	–	-1.82

Conditions	AUC25, [4]	Einf, [3]	GRinf, [5]	total FIC50, [1]	total FIC90, [2]
in vitro model: butyrate, time point: constant (~7 days, model-specific)	0.0797	0.924	-0.0218	0.419	–
in vitro model: butyrate, time point: terminal (~4-5 doublings, model-specific)	0.0647	0.966	-0.0188	0.334	-0.296
in vitro model: cholesterol 0.05 mM, time point: constant (~7 days, model-specific)	0.104	0.602	0.0718	0.0825	–
in vitro model: cholesterol 0.05 mM, time point: terminal (~4-5 doublings, model-specific)	0.082	0.876	0.198	0.896	–
in vitro model: cholesterol-high 0.2 mM, time point: constant (~7 days, model-specific)	0.0425	0.937	-0.354	1.01	–
in vitro model: cholesterol-high 0.2 mM, time point: terminal (~4-5 doublings, model-specific)	0.0582	1	-0.753	1.13	1.05
in vitro model: dormancy (butyrate + nitrate, low O2), time point: constant (~7 days, model-specific)	0.0959	0.838	0.346	-0.35	–
in vitro model: dormancy (butyrate + nitrate, low O2), time point: terminal (~4-5 doublings, model-specific)	0.0588	0.985	-0.0843	0.268	-0.495
in vitro model: standard 7H9 glycerol, time point: constant = terminal	0.0299	0.861	0.231	0.166	–
in vitro model: valerate, time point: constant (~7 days, model-specific)	0.0379	0.867	0.0142	0.576	–
in vitro model: valerate, time point: terminal (~4-5 doublings, model-specific)	0.0266	0.93	0.0403	0.645	-0.611
